Experiment [1] concerns K-562 human leukemia cells. Nature of the experiment: MTS cell viability assay, K-562 human leukemia cells. The format is cell-based. The settings on record: K562, K-562, 4 h compound incubation, MTS, read-out: IC50 Values, Cancerous Cells, Leukemia K-562.
In experiment [2] the test system is DLD-1 human colon carcinoma cells. Nature of the experiment: MTS cell viability assay, DLD-1 human colon carcinoma cells. The format is cell-based. The settings on record: DLD-1, 4 h compound incubation, MTS, read-out: IC50 Values, Cancerous Cells, Colon DLD-1.
Experiment [3] relates to HT-29 human colon carcinoma cells. Nature of the experiment: MTS cell viability assay, HT-29 human colon carcinoma cells. Format: cell-based. The settings on record: 4 h compound incubation, read-out: IC50 Values, Cancerous Cells, Colon HT-29.
For experiment [4], the system named is PACA-2 human pancreatic carcinoma cells. Nature of the experiment: MTS cell viability assay, PACA-2 human pancreatic carcinoma cells. The settings on record: PACA-2, 4 h compound incubation, MTS, read-out: IC50 Values, Cancerous Cells, Pancreas PACA-2. The format is cell-based.
In experiment [5] the test system is E2F-1. Nature of the experiment: E2F-1 induction in HT-29 cells. Format: cell-based, human. An excerpt: Another effect of the compounds of the present invention is the induction or elevation of activity (e.g. elevation of the level) of one or more checkpoint molecules (i.e., a member of the E2F family of transcription factors). Studies have shown that β-lapachone induces activation of E2F1 checkpoint pathway in nuclei of cancer cells but not in normal cells, resulting in the arrest of cancer cells in G1 and/or S phase. Several compounds of the present invention were effective in activating the E2F1 checkpoint pathway (e.g. elevation of E2F1 levels), thus causing G1 and/or S phase arrest. Furthermore, the compounds of the present invention have no significant toxic effects on normal cells (See. Table 1). The assays of the present invention as shown in Table 1 and methods of measuring induction of E2F1 activity and elevation of E2F1 levels can be carried out following the descriptions found in Li et al., (2003) Proc Natl Acad Sci USA. 100(5): 2674-8 and U.S. Patent Application Publication No. 2002/0169135, both incorporated herein by reference.

The test system of experiment [6] is A549 human lung carcinoma cells. The experiment can be described thus: MTS cell viability assay, A549 human lung carcinoma cells. Format: cell-based. The settings on record: A549, 4 h compound incubation, MTS, read-out: IC50 Values, Cancerous Cells, Lung A549.
Experiment [7] concerns DU-145 human prostate carcinoma cells. Nature of the experiment: MTS cell viability assay, DU-145 human prostate carcinoma cells. The format is cell-based. The settings on record: DU-145, 4 h compound incubation, MTS, read-out: IC50 Values, Cancerous Cells, Prostate DU-145.
Experiment [8] concerns NCM-460 normal colon epithelial cells. The experiment can be described thus: MTS cell viability assay, NCM-460 normal colon epithelial cells. Format: cell-based. The settings on record: for pIC50: Homo sapiens, NCM460, NCM-460, 4 h compound incubation, MTS, read-out: IC50 Values, Normal Cells, Colon NCM-460; for Fold Selectivity (NCM-460/DLD1): ratio of IC50 NCM-460 / DLD1.

pIC50: −log10 of the molar value.

Consider `O=C1C(=O)c2ccccc2C2=C1SCC1(CCN(C(=O)c3ccc(Cl)c(Cl)c3)CC1)O2` [Compound 53, 1′-(3,4-dichlorobenzoyl)spiro[naphtho[1,2-b][1,4]oxathiine-2,4′-piperidine]-5,6-dione], for which the negative-log IC50 (pIC50) in experiment [1] is 5.84; in experiment [2] it was 5.85; in experiment [3], 5.66; in experiment [4] it was 5.97; in experiment [6] it was 5.42; in experiment [7], 5.86. Also, the pIC50 in experiment [8] was 5.07. For the same molecule, in experiment [5], the “E2F-1 Induction (HT-29)” value is reported as “YES”. Besides, the “Fold Selectivity (NCM-460/DLD1)” value in experiment [8] is 6.0.

As for `O=C1C(=O)c2ccccc2C2=C1SCC1(CCN(C(=O)c3cccc(Cl)c3)CC1)O2` [Compound 55, 1′-(3-chlorobenzoyl)spiro[naphtho[1,2-b][1,4]oxathiine-2,4′-piperidine]-5,6-dione], the pIC50 was 5.41 in experiment [1]; 5.68 in experiment [2]; 5.24 in experiment [3]; 5.47 in experiment [4]; 5.34 in experiment [6]; 5.41 in experiment [7]. Besides, the pIC50 in experiment [8] was 4.95. Moreover, in experiment [5], the “E2F-1 Induction (HT-29)” value is recorded as “Yes”. Further, in experiment [8], the “Fold Selectivity (NCM-460/DLD1)” value amounted to 5.3.

In the case of `O=C1C(=O)c2ccccc2C2=C1SCC1(CCN(C(=O)Oc3cccc(C(F)(F)F)c3)CC1)O2` [Compound 96, 3-(trifluoromethyl)phenyl 5,6-dioxo-5,6-dihydro-1′H-spiro[naphtho[1,2-b][1,4]oxathiine-2,4′-piperidine]-1′-carboxylate], the pIC50 is 4.44 in experiment [1]; 4.50 in experiment [2]; 4.69 in experiment [3]; 4.57 in experiment [4]; below 4.00 in experiment [6]; 4.70 in experiment [7]. In experiment [8], the negative logarithm of the IC50 (pIC50) is 4.00. Further, the “E2F-1 Induction (HT-29)” value in experiment [5] is on record as “Yes”. Also, in experiment [8], the “Fold Selectivity (NCM-460/DLD1)” value is listed as 3.2.

Consider `O=C1C(=O)c2ccccc2C2=C1SCC1(CCN(C(=O)Oc3ccc(F)cc3)CC1)O2` [Compound 97, 4-fluorophenyl 5,6-dioxo-5,6-dihydro-1′H-spiro[naphtho[1,2-b][1,4]oxathiine-2,4′-piperidine]-1′-carboxylate], for which the pIC50 is 5.37 in experiment [1]; 5.36 in experiment [2]; 4.90 in experiment [3]; 5.31 in experiment [4]; 4.59 in experiment [6]; 5.18 in experiment [7]. For the same molecule, the pIC50 in experiment [8] was 4.88. The “E2F-1 Induction (HT-29)” value in experiment [5] is “YES”. The “Fold Selectivity (NCM-460/DLD1)” value in experiment [8] is listed as 3.0.

Take `O=C1C(=O)c2ccccc2C2=C1SCC1(CCN(Cc3c(F)cccc3Cl)CC1)O2` [Compound 129, 1′-(2-chloro-6-fluorobenzyl)spiro[naphtho[1,2-b][1,4]oxathiine-2,4′-piperidine]-5,6-dione]: the pIC50 in experiment [1] was 5.35; in experiment [2], 5.40; in experiment [3] it was 5.15; in experiment [4], 5.39; in experiment [6] it was 4.17; in experiment [7], 5.17. For the same molecule, the pIC50 in experiment [8] is 4.78. For the same molecule, in experiment [5], the “E2F-1 Induction (HT-29)” value is reported as “Yes”. Moreover, the “Fold Selectivity (NCM-460/DLD1)” value in experiment [8] came to 4.1.

Take `O=C1C(=O)c2ccccc2C2=C1SCC1(CCN(CC(O)Cc3ccccc3)CC1)O2` (stereo not shown) [Compound 163, 1′-(2-hydroxy-3-phenylpropyl)spiro[naphtho[1,2-b][1,4]oxathiine-2,4′-piperidine]-5,6-dione]: the pIC50 in experiment [1] was 6.00; in experiment [2] it was 6.15; in experiment [3] it was 5.35; in experiment [4] it was 6.12; in experiment [6], 5.37; in experiment [7], 5.86. For the same molecule, in experiment [8], the negative-log IC50 (pIC50) was 5.55. Also, the “E2F-1 Induction (HT-29)” value in experiment [5] is “Yes”. Further, the “Fold Selectivity (NCM-460/DLD1)” value in experiment [8] is 4.0.

With `O=C1C(=O)c2ccccc2C2=C1SCC1(CCN(C[C@@H](O)COc3ccc(F)cc3)CC1)O2` [Compound 181, 1′-[(2R)-3-(4-fluorophenoxy)-2-hydroxypropyl]spiro[naphtho[1,2-b][1,4]oxathiine-2,4′-piperidine]-5,6-dione], the pIC50 in experiment [1] was 5.88; in experiment [2] it was 6.13; in experiment [3] it was 5.51; in experiment [4], 6.04; in experiment [6], 5.31; in experiment [7], 5.82. Besides, in experiment [8], the pIC50 was 5.34. Further, in experiment [5], the “E2F-1 Induction (HT-29)” value is listed as “Yes”. The “Fold Selectivity (NCM-460/DLD1)” value in experiment [8] is given as 6.2.

Regarding `O=C1C(=O)c2ccccc2C2=C1SCC1(CCN(C[C@@H](O)COc3ccc(Cl)cc3)CC1)O2` [Compound 183, 1′-[(2R)-3-(4-chlorophenoxy)-2-hydroxypropyl]spiro[naphtho[1,2-b][1,4]oxathiine-2,4′-piperidine]-5,6-dione], the pIC50 is 5.62 in experiment [1]; 5.98 in experiment [2]; 5.41 in experiment [3]; 6.15 in experiment [4]; 5.51 in experiment [6]; 6.10 in experiment [7]. Moreover, in experiment [8], the pIC50 was 4.99. For the same molecule, in experiment [5], the “E2F-1 Induction (HT-29)” value is “Yes”. The “Fold Selectivity (NCM-460/DLD1)” value in experiment [8] was 9.8.

As to `CC(C)(C)c1ccc(OC[C@H](O)CN2CCC3(CC2)CSC2=C(O3)c3ccccc3C(=O)C2=O)cc1` [Compound 185, 1′-[(2R)-3-(4-tert-butylphenoxy)-2-hydroxypropyl]spiro[naphtho[1,2-b][1,4]oxathiine-2,4′-piperidine]-5,6-dione], the pIC50 in experiment [1] was 5.35; in experiment [2], 5.47; in experiment [3], 5.61; in experiment [4], 5.86; in experiment [6], 5.13; in experiment [7], 6.00. The negative-log IC50 (pIC50) in experiment [8] was 4.86. The “E2F-1 Induction (HT-29)” value in experiment [5] is reported as “YES”. Also, in experiment [8], the “Fold Selectivity (NCM-460/DLD1)” value stood at 4.1.

Consider `O=C(O)CCC(=O)N1CCC2(CC1)CSC1=C(O2)c2ccccc2C(=O)C1=O` [Compound 233, 4-(5,6-dioxo-5,6-dihydro-1′H-spiro[naphtho[1,2-b][1,4]oxathiine-2,4′-piperidin]-1′-yl)-4-oxobutanoic acid], for which the negative-log IC50 (pIC50) in experiment [1] was 4.20; in experiment [2] it was 4.19; in experiment [4] it was 4.25; in experiment [6] it was below 4.00; in experiment [7], 4.39; in experiment [8], 4.31. Further, the “Fold Selectivity (NCM-460/DLD1)” value in experiment [8] is 0.8.

For the molecule `O=C(O)CSCC(=O)N1CCC2(CC1)CSC1=C(O2)c2ccccc2C(=O)C1=O` [Compound 234, {[2-(5,6-dioxo-5,6-dihydro-1′H-spiro[naphtho[1,2-b][1,4]oxathiine-2,4′-piperidine]-1′-yl)-2-oxoethyl]thio}acetic acid], the pIC50 is below 4.00 in experiment [1]; below 4.00 in experiment [2]; 4.25 in experiment [4]; below 4.00 in experiment [6]; below 4.00 in experiment [7]; below 4.00 in experiment [8].

As for `O=C1C(=O)c2ccccc2C2=C1SCC1(CCN(C(=O)C3CCC3C(=O)O)CC1)O2` (stereo not shown) [Compound 235, 2-[(5,6-dioxo-5,6-dihydro-1′H-spiro[naphtho[1,2-b][1,4]oxathiine-2,4′-piperidin]-1′-yl)carbonyl]cyclobutanecarboxylic acid], the negative logarithm of the IC50 (pIC50) in experiment [1] is 4.28; in experiment [2], 4.16; in experiment [4] it was 4.31; in experiment [6] it was below 4.00; in experiment [7], 4.26; in experiment [8], 4.07. Besides, the “Fold Selectivity (NCM-460/DLD1)” value in experiment [8] is on record as 1.2.

Turning to `O=C1C(=O)c2ccccc2C2=C1SCC1(CCN(C(=O)c3cnccc3C(=O)O)CC1)O2` [Compound 237, 3-[(5,6-dioxo-5,6-dihydro-1′H-spiro[naphtho[1,2-b][1,4]oxathiine-2,4′-piperidin]-1′-yl)carbonyl]isonicotinic acid], the pIC50 was 4.31 in experiment [1]; 4.18 in experiment [2]; 4.32 in experiment [4]; below 4.00 in experiment [6]; 4.21 in experiment [7]; 4.03 in experiment [8]. Moreover, the “Fold Selectivity (NCM-460/DLD1)” value in experiment [8] was determined as 1.4.

For `O=C1C(=O)c2ccccc2C2=C1SCC1(CCN(C3CCCCC3)CC1)O2` [Compound 258, 1′-cyclohexylspiro[naphtho[1,2-b][1,4]oxathiine-2,4′-piperidine]-5,6-dione], the pIC50 in experiment [1] is 5.83; in experiment [2], 5.83; in experiment [4], 5.70; in experiment [6], 5.27; in experiment [7], 5.41; in experiment [8] it was 5.23. Moreover, the “Fold Selectivity (NCM-460/DLD1)” value in experiment [8] was 4.0.

For the origin of these results see patent US7902354B2, “Lapachone compounds and methods of use thereof” (ArQule, Inc., priority 2006, dated 2011).
